Data: patent publication US5508302A, “Phospholipase A2 inhibitors” (American Home Products Corporation, priority 1994, dated 1996)
Where “and” joins values, the source holds several entries; their conditions need not be identical. Identical values can stand only once. Counter-ions that a name gives are not always drawn.

What was measured:
cyclooxygenase = assay: resident murine peritoneal macrophage test, PGE2 (cyclooxygenase) by RIA; assay type: cell-based, mouse (female Swiss Webster); details: for IC50: 95% confidence limits given, mouse macrophages
Method: (§1) The ability of the compounds of the invention to act as inhibitors of the enzymes 5-lipoxygenase and cyclooxygenase was evaluated in the resident murine peritoneal macrophage standard pharmacological test procedure. This test procedure was carried out as follows.
Resident peritoneal macrophages were collected from female Swiss Webster mice (49 days old, 20-25 gms, Buckshire) by lavaging with 7-8 ml Hanks Balanced Salt Solution (HBSS) without Ca^++ and Mg^++ (GIBCO). The lavage fluid from several mice was pooled and centrifuged at 4° C. for 10 minutes at 400 xg. The cell pellet was resuspended in Medium 199 (GIBCO) with HEPES buffer containing 100 μg/ml gentamicin. Two ml of the cell suspension (4×10^6 cells) were then plated on 35 mm culture dishes (Nunc).
A macrophage monolayer was established after a 1-1.5 hour incubation of the cells at 37° C. in an atmosphere of […] and 5% CO2. The monolayers were washed 2x with 2 ml HBDSS, containing Ca^++ and Mg^++ after which 2 ml Medium 199 supplemented with 10% freshly thawed heat-inactivated fetal bovine serum and 100 μg/ml gentamicin was added for an overnight incubation.
(§2) Residual serum and cellular debris were removed from the monolayers by washing 3x with 2 ml HBSS containing Ca^++ and Mg^++. Macrophages were preincubated for 5 minutes with 1 ml serum-free M199 containing 10 μl dimethyl sulfoxide (DMSO) vehicle or test compound prior to cell activation with zymosan ([…]) or arachidonic acid (AA) (2 μM). After 2 hours, the supernatants are removed and either assayed for LTC4 and PGE2 by radioimmunoassay (RIA) directly or stored at -20° C. In all cases, results are expressed as ng metabolite/4×10^6 cells.
(§3) Calculations: The raw data were converted to ng metabolite/4-10^6 cells using a standard curve. Results were then expressed as percent inhibition of zymosan induced, leukotriene or prostaglandin synthesis (control) using the following equation: […]

5-lipoxygenase = biological target: T1, 5-lipoxygenase (Mus musculus, UniProt P48999); assay: resident murine peritoneal macrophage test, LTC4 (5-lipoxygenase) by RIA; assay type: cell-based, mouse (female Swiss Webster)
T1 construct: Resident peritoneal macrophages were collected from female Swiss Webster mice; endogenous in cells; host or cells: resident peritoneal macrophages of female Swiss Webster mice
T1 sequence (P48999 1-674): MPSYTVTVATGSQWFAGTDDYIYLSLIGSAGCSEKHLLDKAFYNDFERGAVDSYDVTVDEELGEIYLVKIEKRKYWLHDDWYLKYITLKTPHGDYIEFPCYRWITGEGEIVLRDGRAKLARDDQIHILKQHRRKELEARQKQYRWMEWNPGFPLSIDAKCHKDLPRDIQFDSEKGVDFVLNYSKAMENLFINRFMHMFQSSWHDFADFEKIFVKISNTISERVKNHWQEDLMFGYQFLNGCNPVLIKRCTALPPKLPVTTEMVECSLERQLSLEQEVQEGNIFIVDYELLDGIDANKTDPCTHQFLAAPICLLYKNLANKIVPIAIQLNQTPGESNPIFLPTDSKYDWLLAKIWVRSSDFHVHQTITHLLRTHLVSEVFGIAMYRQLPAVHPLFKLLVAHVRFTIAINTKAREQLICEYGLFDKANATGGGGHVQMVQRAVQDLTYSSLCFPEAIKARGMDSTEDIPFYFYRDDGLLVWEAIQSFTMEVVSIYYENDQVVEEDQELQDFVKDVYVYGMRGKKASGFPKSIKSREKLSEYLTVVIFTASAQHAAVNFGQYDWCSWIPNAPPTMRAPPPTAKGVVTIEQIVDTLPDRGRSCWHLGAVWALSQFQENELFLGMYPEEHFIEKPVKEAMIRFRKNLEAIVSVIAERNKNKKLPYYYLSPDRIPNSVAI
Method: as §1
Resident peritoneal macrophages were collected from female Swiss Webster mice (49 days old, 20-25 gms, Buckshire) by lavaging with 7-8 ml Hanks Balanced Salt Solution (HBSS) without Ca^++ and Mg^++ (GIBCO). The lavage fluid from several mice was pooled and centrifuged at 4° C. for 10 minutes at 400 xg. […] Two ml of the cell suspension (4×10^6 cells) were then plated on 35 mm culture dishes (Nunc).
as §2, §3

[1] = tested on: tetradecanoylphorbol acetate (TPA) induced ear edema; assay: TPA induced ear edema in Webster mice (dermal inflammation); assay type: in vivo; details: for inhibition of TPA induced ear edema: 100 mg/kg, oral, 30 min after TPA, ears measured 4 hrs after TPA
Method: Representative compounds of this invention were evaluated in an in vivo standard pharmacological test procedure that measured the effect of the representative compounds on dermal inflammation, as measured by the prevention of tetradecanoylphorbol acetate (TPA) induced ear edema in Webster mice. This test procedure was carried out as follows.
Mice were placed into plastic boxes in groups of six. Eight groups of mice received TPA topically on the right ear. TPA was dissolved in acetone at a concentration of 100 ug/ml. TPA was applied to the right ear by the means of an automatic pipette. Volumes of 10 ul were applied to the inner and outer surfaces of the ear. Each mouse received 2 ug/ear TPA. The left ear (control) received acetone delivered in the same manner. The compounds to be evaluated were given orally 30 min alter treatment with TPA.
Measurements were taken with Oditest calipers, 0-10 mm with 0.01 graduations. The right and left ears were measured 4 hrs after TPA-induced inflammation.
The difference between right and left ear thickness was calculated and the significance was determined by a one way analysis of variance with Dunnet's comparisons to control (P=0.05). Drug effects are expressed as a percent change from control values according to the following formula. [formula]

CCCCCC#CCC#CCC#CCC#CCCCC(=O)O [ETYA, reference compound]
IC50 (cyclooxygenase): 1.26 µM

O=C(CCC1CCCCCCCCCCC1=O)C1=C(O)COC1=O (centres unmarked) [Example 1, 4-Hydroxy-3-[3-(2-oxocyclododecyl)-propionyl]-2-(5H)-furanone]
PGE2 % Inhibition (cyclooxygenase; dose 0.1 μM): -17.9% | PGE2 % Inhibition (cyclooxygenase; dose 0.5 μM): 5.8% | LTC4 % Inhibition (5-lipoxygenase; dose 0.1 μM): 2.1% | LTC4 % Inhibition (5-lipoxygenase; dose 0.5 μM): 38.7%

O=C(CCC1CCCCCCCCCCC1=O)C1=C(O)CSC1=O (centres unmarked) [Example 2, 4-Hydroxy-3-[3-(2-Oxocyclododecyl)propionyl]-2-(5H)-thiophenone]
PGE2 % Inhibition (cyclooxygenase; dose 0.1 μM): -35.0% | PGE2 % Inhibition (cyclooxygenase; dose 0.5 μM): 3.3% | inhibition of TPA induced ear edema [1]: 40% | LTC4 % Inhibition (5-lipoxygenase; dose 0.1 μM): -4.9% | LTC4 % Inhibition (5-lipoxygenase; dose 0.5 μM): 39.5%

O=C(CCC1CCCCCCCCCCC1=NOCc1ccccc1)C1=C(O)COC1=O (centres unmarked) [Example 3, 3-{3-[2-(Benzyloxyimino)cyclododecyl]-propionyl}-4-hydroxy-2-(5H)-furanone 2-amino-(2-hydroxymethyl)-1,3-propanediol salt]
PGE2 % Inhibition (cyclooxygenase; dose 0.03 μM): 8% | PGE2 % Inhibition (cyclooxygenase; dose 0.5 μM): 86% and 59% | inhibition of TPA induced ear edema [1]: 34% | LTC4 % Inhibition (5-lipoxygenase; dose 0.03 μM): 40% | LTC4 % Inhibition (5-lipoxygenase; dose 0.1 μM): 38% and 53% | LTC4 % Inhibition (5-lipoxygenase; dose 0.5 μM): 64% and 68%

O=C(CCC1CCCCCCCCCCC1=NOCc1ccccc1)C1=C(O)CSC1=O (centres unmarked) [Example 4, 3-{3-[2-(Benzyloxyimino)cyclododecyl]-propionyl}-4-hydroxy-2-(5H)-thiophenone 2-amino-(2-hydroxymethyl)-1,3-propanediol salt]
PGE2 % Inhibition (cyclooxygenase; dose 0.03 μM): 18% | PGE2 % Inhibition (cyclooxygenase; dose 0.35 μM): 52% | PGE2 % Inhibition (cyclooxygenase; dose 0.5 μM): 82% | inhibition of TPA induced ear edema [1]: 19% | LTC4 % Inhibition (5-lipoxygenase; dose 0.03 μM): 45% | LTC4 % Inhibition (5-lipoxygenase; dose 0.1 μM): 37% and 66% | LTC4 % Inhibition (5-lipoxygenase; dose 0.35 μM): 97% | LTC4 % Inhibition (5-lipoxygenase; dose 0.5 μM): 77%

COc1ccc2c(c1)c(CC(=O)O)c(C)n2C(=O)c1ccc(Cl)cc1 [Indomethacin, reference compound]
activity in TPA induced ear edema ([1]; at 10 mg/g (so in the source)): inactive

CC(Cc1ccc(O)c(O)c1)C(C)Cc1ccc(O)c(O)c1 (centres unmarked) [NDGA, reference compound]
IC50 (cyclooxygenase): 2.15 µM
